# Measured values reported in US11208443B2, “NAF-1 derived peptides and uses thereof” (YISSUM RESEARCH DEVELOPMENT COMPANY OF THE HEBREW …, priority 2017, dated 2021).
# Where two headings read alike, the source gives them in different places. Non-standard residues stand in square brackets, D forms with d. Residues, ends and D or L forms follow the SMILES beside them. No end group written: not given here. PEG8 = NCCOCCOCCOCCOCCOCCOCCOCCOCCC(=O)O
# How the values were obtained:
# MDA-MB-231 cells [1] = experiment: Penetration of fluorescein-labeled peptide into malignant cells; assay type: cell-based, human; details: FIG. 2, FIG. 6A
# Method: (§1) To elucidate the site of action of the peptide having SEQ ID NO: 1, the peptide was labeled as described in Example 1 and incubated with normal and malignant cells (MCF-10A and MDA-MB-231 cells, respectively). […] Without being bound to any specific theory it was estimates that the peptide affects or disrupts the structure of the mitochondrial and nuclear membrane.
# (§2) In addition to D-PEP peptide (SEQ ID NO:3), in which all amino acids of SEQ ID NO: 1 were substituted to D-amino acids, a peptide comprising only 3 D-amino acids was produced and has the sequence FLGVLALLGyLAVRPfLPKkKQQK (SEQ ID NO: 2, referred as 3D-PEP). This peptide, as well as D-PEP, both marked with Fluorescein, were tested for their ability to penetrate into non-tumor MCF-10A and malignant MDA-MB-231 and for their toxicity, as described in Example 3. Briefly, cells were incubated with 10 μM of each sample of the peptides for 3 h and then intensively washed. Cell fluorescence was observed by semi-confocal microscope. For cell viability measurement, cells were incubated with 10 μM or 5 μM of each one of the peptides for 5 days and then cell viability was assayed using Alamar blue assay.
# MCF-10A cells [2] = experiment: Penetration of fluorescein-labeled peptide into non-malignant cells; assay type: cell-based; details: FIG. 2
# Method: as §1, §2
# MDA-MB-231 cells [3] = experiment: Effect of labeled peptide on mitochondria and nuclei, confocal imaging; assay type: cell-based, human
# Method: as §1
# MCF-10A cells [4] = experiment: Effect of labeled peptide on nuclei, confocal imaging; assay type: cell-based; details: FIG. 6C
# Method: as §1
# [5] = Cell viability of malignant cells (Examples 1, 6, 10); assay type: cell-based, human
# Description: (§3) However, substitution of several amino acids to Ala drastically diminished the toxicity of these analogs.
# MCF-10A cells [6] = system: MCF-10A cells
# Method: The ability of the peptide having the sequence SEQ ID NO: 1 to penetrate into the cells and its effect on cells' viability was tested as following. Green fluorescein was conjugated to the peptide having SEQ ID NO: 1 (the labeled peptide is referred as PEP-FL). Then, the fluorescent peptide was incubated with normal, non-tumor epithelial cell line (MCF-10A) and malignant (MDA-MB-231) breast epithelial cells. The mitochondria of the cells were labeled red with RPA and the cells' nuclei were labeled with Hoechst 33342 (blue dye).
# MDA-MB-231 cells [7] = experiment: Cell viability of malignant cells (Examples 1, 6, 10); assay type: cell-based, human
# Description: as §3
# chymotrypsin = experiment: Stability against protease cleavage, HPLC; assay type: in vitro ADME
# Method: Stability of the D-PEP, and 3D-PEP, analogs, and of PEG-N-3D-PEP and PEG-C-3D-PEP conjugates against protease cleavage (chymotrypsin and trypsin) was tested and compared to stability of the native peptide having SEQ ID NO: 1. To peptides' stocks of 430 μl in concentration of 450 μM were added 0.001 mg/ml protease (Trypsin or Chymotrypsin) and incubated in room temperature (22° C.). Samples of 40 μl were taken before adding the protease and after every 15 min in the first hour, and after 2 […] and 24 h. To stop the proteolysis samples were added 7 μl of 2% TFA in TDW. The samples were added 60 μl TDW and were analyzed using analytical HPLC.
compound,measurement,setting,value
"PEP-FL: Green fluorescein was conjugated to the peptide having SEQ ID NO: 1 (FLGVLALLGYLAVRPFLPKKKQQK; also: green fluorescein conjugated, site not given here)",uptake of fluorescent peptide by malignant cells,MDA-MB-231 cells [1],preferentially up-taken by the cancer MDA-MB-231 cells
same,uptake of fluorescent peptide by normal cells,MCF-10A cells [2],not by normal cells
same,effect on nuclei of malignant cells,"MDA-MB-231 cells [3]; 12 hours of incubation, FIG. 6C",completely disappeared
same,effect on mitochondria of malignant cells,"MDA-MB-231 cells [3]; time after peptide addition, FIG. 6B",disappeared within three hours
same,effect on nuclei of normal cells,MCF-10A cells [4],no serious damage
CC(C)C[C@H](NC(=O)[C@H](C)NC(=O)[C@H](CC(C)C)NC(=O)[C@@H](NC(=O)CNC(=O)[C@H](CC(C)C)NC(=O)[C@H](Cc1ccccc1)NC(=O)CCOCCOCCOCCOCCOCCOCCOCCOCCN)C(C)C)C(=O)N[C@@H](CC(C)C)C(=O)NCC(=O)N[C@H](Cc1ccc(O)cc1)C(=O)N[C@@H](CC(C)C)C(=O)N[C@@H](C)C(=O)N[C@H](C(=O)N[C@@H](CCCNC(=N)N)C(=O)N1CCC[C@H]1C(=O)N[C@H](Cc1ccccc1)C(=O)N[C@@H](CC(C)C)C(=O)N1CCC[C@H]1C(=O)N[C@@H](CCCCN)C(=O)N[C@H](CCCCN)C(=O)N[C@@H](CCCCN)C(=O)N[C@@H](CCC(N)=O)C(=O)N[C@@H](CCC(N)=O)C(=O)N[C@@H](CCCCN)C(N)=O)C(C)C [PEG-N-3D-PEP] (H-[PEG8]FLGVLALLG[dY]LAVRP[dF]LPK[dK]KQQK-NH2; C-terminus assumed),cytotoxicity,[5],~80%
same,effect on viability of normal cells,MCF-10A cells [6],much weaker effect
CC(C)C[C@H](NC(=O)[C@H](C)NC(=O)[C@H](C)NC(=O)[C@H](C)NC(=O)[C@@H](NC(=O)CNC(=O)[C@H](CC(C)C)NC(=O)[C@@H](N)Cc1ccccc1)C(C)C)C(=O)NCC(=O)N[C@@H](Cc1ccc(O)cc1)C(=O)N[C@@H](CC(C)C)C(=O)N[C@@H](C)C(=O)N[C@H](C(=O)N[C@@H](CCCNC(=N)N)C(=O)N1CCC[C@H]1C(=O)N[C@@H](Cc1ccccc1)C(=O)N[C@@H](CC(C)C)C(=O)N1CCC[C@H]1C(=O)N[C@@H](CCCCN)C(=O)N[C@@H](CCCCN)C(=O)N[C@@H](CCCCN)C(=O)N[C@@H](CCC(N)=O)C(=O)N[C@@H](CCC(N)=O)C(=O)N[C@@H](CCCCN)C(=O)O)C(C)C [PEP-L48A-L50A] (H-FLGVAAALGYLAVRPFLPKKKQQK-OH; N-terminus and C-terminus assumed),cytotoxic activity of alanine analogs,MDA-MB-231 cells [7],completely lost their cytotoxic activity
CC(C)C[C@H](NC(=O)[C@H](C)NC(=O)[C@H](C)NC(=O)[C@@H](NC(=O)CNC(=O)[C@H](C)NC(=O)[C@H](C)N)C(C)C)C(=O)N[C@@H](CC(C)C)C(=O)NCC(=O)N[C@@H](Cc1ccc(O)cc1)C(=O)N[C@@H](CC(C)C)C(=O)N[C@@H](C)C(=O)N[C@H](C(=O)N[C@@H](CCCNC(=N)N)C(=O)N1CCC[C@H]1C(=O)N[C@@H](Cc1ccccc1)C(=O)N[C@@H](CC(C)C)C(=O)N1CCC[C@H]1C(=O)N[C@@H](CCCCN)C(=O)N[C@@H](CCCCN)C(=O)N[C@@H](CCCCN)C(=O)N[C@@H](CCC(N)=O)C(=O)N[C@@H](CCC(N)=O)C(=O)N[C@@H](CCCCN)C(=O)O)C(C)C [PEP-F44A-L45A-L48A] (H-AAGVAALLGYLAVRPFLPKKKQQK-OH; N-terminus and C-terminus assumed),cytotoxic activity of alanine analogs,MDA-MB-231 cells [7],completely lost their cytotoxic activity
"CC(C)C[C@H](NC(=O)[C@H](C)NC(=O)[C@H](CC(C)C)NC(=O)[C@@H](NC(=O)CNC(=O)[C@H](CC(C)C)NC(=O)[C@@H](N)Cc1ccccc1)C(C)C)C(=O)N[C@@H](CC(C)C)C(=O)NCC(=O)N[C@H](Cc1ccc(O)cc1)C(=O)N[C@@H](CC(C)C)C(=O)N[C@@H](C)C(=O)N[C@H](C(=O)N[C@@H](CCCNC(=N)N)C(=O)N1CCC[C@H]1C(=O)N[C@H](Cc1ccccc1)C(=O)N[C@@H](CC(C)C)C(=O)N1CCC[C@H]1C(=O)N[C@@H](CCCCN)C(=O)N[C@H](CCCCN)C(=O)N[C@@H](CCCCN)C(=O)N[C@@H](CCC(N)=O)C(=O)N[C@@H](CCC(N)=O)C(=O)N[C@@H](CCCCN)C(=O)O)C(C)C [3D-PEP, FLGVLALLGyLAVRPfLPKkKQQK] (H-FLGVLALLG[dY]LAVRP[dF]LPK[dK]KQQK-OH; N-terminus and C-terminus assumed)",half life against chymotrypsin compared to native peptide,chymotrypsin,much longer half life
CC(C)C[C@H](NC(=O)[C@H](C)NC(=O)[C@H](CC(C)C)NC(=O)[C@@H](NC(=O)CNC(=O)[C@H](CC(C)C)NC(=O)[C@@H](N)Cc1ccccc1)C(C)C)C(=O)N[C@@H](CC(C)C)C(=O)NCC(=O)N[C@H](Cc1ccc(O)cc1)C(=O)N[C@@H](CC(C)C)C(=O)N[C@@H](C)C(=O)N[C@H](C(=O)N[C@@H](CCCNC(=N)N)C(=O)N1CCC[C@H]1C(=O)N[C@H](Cc1ccccc1)C(=O)N[C@@H](CC(C)C)C(=O)N1CCC[C@H]1C(=O)N[C@@H](CCCCN)C(=O)N[C@H](CCCCN)C(=O)N[C@@H](CCCCN)C(=O)N[C@@H](CCC(N)=O)C(=O)N[C@@H](CCC(N)=O)C(=O)N[C@@H](CCCCN)C(=O)NCCOCCOCCOCCOCCOCCOCCOCCOCCC(N)=O)C(C)C [PEG-C-3D-PEP] (H-FLGVLALLG[dY]LAVRP[dF]LPK[dK]KQQK[PEG8]-NH2; N-terminus assumed),cytotoxicity,[5],~70%
same,effect on viability of normal cells,MCF-10A cells [6],much weaker effect
CC(C)C[C@H](NC(=O)[C@H](C)NC(=O)[C@H](CC(C)C)NC(=O)[C@@H](NC(=O)CNC(=O)[C@H](C)NC(=O)[C@H](C)N)C(C)C)C(=O)N[C@@H](CC(C)C)C(=O)NCC(=O)N[C@@H](Cc1ccc(O)cc1)C(=O)N[C@@H](CC(C)C)C(=O)N[C@@H](C)C(=O)N[C@H](C(=O)N[C@@H](CCCNC(=N)N)C(=O)N1CCC[C@H]1C(=O)N[C@@H](Cc1ccccc1)C(=O)N[C@@H](CC(C)C)C(=O)N1CCC[C@H]1C(=O)N[C@@H](CCCCN)C(=O)N[C@@H](CCCCN)C(=O)N[C@@H](CCCCN)C(=O)N[C@@H](CCC(N)=O)C(=O)N[C@@H](CCC(N)=O)C(=O)N[C@@H](CCCCN)C(=O)O)C(C)C [PEP-F44A-L45A] (H-AAGVLALLGYLAVRPFLPKKKQQK-OH; N-terminus and C-terminus assumed),cytotoxic activity of alanine analogs,"MDA-MB-231 cells [7]; MDA-MB-231, FIG. 18",completely lost their cytotoxic activity
